Measurements taken from patent US6979436B2, “Opioid metallopeptide compositions and methods” (Palatin Technologies, Inc., priority 1999, dated 2005).
Non-standard residues stand in square brackets, D forms with d. No end group written: not given here. hTyr = N[C@@H](CCc1ccc(O)cc1)C(=O)O; hPhe = N[C@@H](CCc1ccccc1)C(=O)O; Phg = N[C@H](C(=O)O)c1ccccc1; Ava = NCCCCC(=O)O; βAla = NCCC(=O)O

Assays:
[1] = system: μ receptors, guinea pig ileum (GPI); experiment: guinea pig ileum (GPI) in vitro functional assay; conditions: for GPI functional activity class / EC50: guinea pig ileum; for EC50: read-out: In Vitro Functional Assay [ED50 in μM] GPI, rhenium-complexed peptides; for GPI observed percent efficacy at 10 μM: value in brackets
[2] = target: δ receptors, mouse vas deferens (MVD) (Mus musculus, UniProt P32300); experiment: mouse vas deferens (MVD) in vitro functional assay; conditions: for MVD functional activity class / EC50: mouse vas deferens; for EC50: read-out: In Vitro Functional Assay [ED50 in μM] MVD, rhenium-complexed peptides; for MVD observed percent efficacy at 10 μM: value in brackets
κ opiate receptor = κ opiate receptor (Cavia porcellus, UniProt P41144); experiment: κ receptor binding assay, guinea-pig brain membrane, 3H-U69593 displacement; conditions: read-out: Receptor Binding Assay [Ki in μM] Kappa Receptor
Chain of κ opiate receptor (P41144 whole entry): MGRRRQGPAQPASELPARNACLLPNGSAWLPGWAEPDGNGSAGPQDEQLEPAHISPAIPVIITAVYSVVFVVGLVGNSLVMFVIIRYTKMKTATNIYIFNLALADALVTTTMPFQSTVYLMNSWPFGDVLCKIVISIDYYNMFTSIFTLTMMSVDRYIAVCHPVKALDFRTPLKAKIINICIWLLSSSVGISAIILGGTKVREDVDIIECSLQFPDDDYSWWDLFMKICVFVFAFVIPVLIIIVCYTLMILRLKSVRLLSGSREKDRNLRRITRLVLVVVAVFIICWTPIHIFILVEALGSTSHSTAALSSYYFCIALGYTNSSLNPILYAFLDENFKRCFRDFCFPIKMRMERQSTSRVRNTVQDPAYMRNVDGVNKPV

Chain of δ receptors, mouse vas deferens (MVD) (P32300 whole entry): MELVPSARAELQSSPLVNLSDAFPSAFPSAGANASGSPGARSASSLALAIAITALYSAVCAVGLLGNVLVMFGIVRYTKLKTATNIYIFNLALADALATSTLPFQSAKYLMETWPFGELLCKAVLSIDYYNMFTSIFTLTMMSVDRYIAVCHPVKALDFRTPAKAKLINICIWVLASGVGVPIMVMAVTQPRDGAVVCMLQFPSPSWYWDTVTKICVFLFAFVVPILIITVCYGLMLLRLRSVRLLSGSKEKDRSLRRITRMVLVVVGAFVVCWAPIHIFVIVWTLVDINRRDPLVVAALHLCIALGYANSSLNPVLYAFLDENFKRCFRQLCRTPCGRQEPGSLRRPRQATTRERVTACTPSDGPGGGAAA

## Tyr-Gly-Cys-HPhe-NH2 (YGC[hPhe]-NH2; also: rhenium complex)
[1]
  GPI functional activity class: WPA
[2]
  MVD functional activity class: WPA

## YGGCF [Tyr-Gly-Gly-Cys-Phe-NH2]
[1]
  EC50: > 10 µM
[2]
  EC50: > 10 µM

## Tyr-[dK]-Cys-OH
[1]
  GPI observed percent efficacy at 10 μM: 57%
[2]
  MVD observed percent efficacy at 10 μM: 9%

## Tyr-Ala-Phe-Cys-OH (YAFC-OH; also: rhenium complex)
[1]
  GPI observed percent efficacy at 10 μM: 8%
[2]
  MVD observed percent efficacy at 10 μM: 48%

## Tyr-β-Ala-Gly-Phe-Cys-NH2 (Y[βAla]GFC-NH2; also: rhenium complex)
[2]
  MVD observed percent efficacy at 10 μM: 22%

## YAGFC [Tyr-Ala-Gly-Phe-Cys-NH2]
[1]
  EC50: > 10 µM
[2]
  EC50: > 10 µM

## YCGFC [Tyr-Cys-Gly-Phe-Cys-NH2]
[1]
  EC50: 0.612 µM
κ opiate receptor
  Ki: 2.1 µM

## YG[dF]C-NH2
[1]
  EC50: > 10 µM
[2]
  EC50: > 10 µM

## Tyr-Cys-Gly-Cys-NH2 (YCGC-NH2; cysteine pairing not given here; also: rhenium complex)
[1]
  GPI observed percent efficacy at 10 μM: 14%
[2]
  MVD observed percent efficacy at 10 μM: 34%

## HTyr-β-Ala-Gly-Phe-D-Cys-NH2
[2]
  MVD observed percent efficacy at 10 μM: 11%

## Y[βAla]GF[dC]-NH2
[2]
  MVD observed percent efficacy at 10 μM: 30%

## Tyr-Ala-Cys-Phe-NH2 (YACF-NH2; also: rhenium complex)
[1]
  GPI functional activity class: WPA
[2]
  MVD functional activity class: WPA

## Tyr-Val-Cys-Phe-NH2 (YVCF-NH2; also: rhenium complex)
[2]; ED30 instead of ED50
  MVD [ED30]: 1.42 ± 0.21 µM

## Y[dA]CF-NH2
[1]; ED40 instead of ED50
  GPI [ED40]: 3.06 ± 0.29 µM
[2]
  MVD observed percent efficacy at 10 μM: 16%

## Tyr-Lys-Cys-OH
[1]
  GPI observed percent efficacy at 10 μM: 41%
[2]
  MVD observed percent efficacy at 10 μM: 48%

## HTyr-β-Ala-Gly-Phe-Cys-NH2 ([hTyr][βAla]GFC-NH2; also: rhenium complex)
[2]
  MVD observed percent efficacy at 10 μM: 30%

## Tyr-Gly-Cys-Phg-NH2 (YGC[Phg]-NH2; also: rhenium complex)
[1]
  GPI functional activity class: WPA
[2]
  MVD functional activity class: WPA

## YC[dF]G-NH2
[1]
  EC50: > 10 µM
[2]
  EC50: > 10 µM

## NH2(CH2)4—CO-Phe-Asp-Cys-HTyr-NH2 ([Ava]FDC[hTyr]-NH2; also: rhenium complex)
[2]
  MVD observed percent efficacy at 10 μM: 20%

## Y[dK]CF
[1]
  EC50: 3.03 ± 0.43 µM

## (p-OH)—C6H4(CH2)2—NH—CO—CH(NH2)—(CH2)2—CO-Gly-Phe-D-Cys-NH2
[2]
  MVD observed percent efficacy at 10 μM: 9%

## Y[βAla]FGC-OH
[1]
  GPI observed percent efficacy at 10 μM: 51%
[2]
  MVD observed percent efficacy at 10 μM: 17%

## Tyr-Ala-Cys-Phg-NH2 (YAC[Phg]-NH2; also: rhenium complex)
[1]
  GPI functional activity class: WPA

## YGCF [Tyr-Gly-Cys-Phe-NH2]
[1]
  EC50: > 10 µM
[2]
  EC50: 1.35 µM

## Lys-Tyr-Cys-OH
[1]
  GPI observed percent efficacy at 10 μM: 34%
[2]
  MVD observed percent efficacy at 10 μM: 41%

## Tyr-Ala-Cys-HPhe-NH2 (YAC[hPhe]-NH2; also: rhenium complex)
[1]
  GPI functional activity class: WPA
[2]
  MVD functional activity class: WPA

## [dK]-Tyr-Cys-OH
[1]
  GPI observed percent efficacy at 10 μM: 28%
[2]
  MVD observed percent efficacy at 10 μM: 18%

## Leu-Enkephalin [reference compound]
[1]
  EC50: 0.246 µM
